Data on 24 compounds can be found in patent US8178570B2, “Tie-2 modulators and methods of use” (Exelixis, Inc., priority 2003, dated 2012).

Sequence of Tie-2 (Q02763 23-1124): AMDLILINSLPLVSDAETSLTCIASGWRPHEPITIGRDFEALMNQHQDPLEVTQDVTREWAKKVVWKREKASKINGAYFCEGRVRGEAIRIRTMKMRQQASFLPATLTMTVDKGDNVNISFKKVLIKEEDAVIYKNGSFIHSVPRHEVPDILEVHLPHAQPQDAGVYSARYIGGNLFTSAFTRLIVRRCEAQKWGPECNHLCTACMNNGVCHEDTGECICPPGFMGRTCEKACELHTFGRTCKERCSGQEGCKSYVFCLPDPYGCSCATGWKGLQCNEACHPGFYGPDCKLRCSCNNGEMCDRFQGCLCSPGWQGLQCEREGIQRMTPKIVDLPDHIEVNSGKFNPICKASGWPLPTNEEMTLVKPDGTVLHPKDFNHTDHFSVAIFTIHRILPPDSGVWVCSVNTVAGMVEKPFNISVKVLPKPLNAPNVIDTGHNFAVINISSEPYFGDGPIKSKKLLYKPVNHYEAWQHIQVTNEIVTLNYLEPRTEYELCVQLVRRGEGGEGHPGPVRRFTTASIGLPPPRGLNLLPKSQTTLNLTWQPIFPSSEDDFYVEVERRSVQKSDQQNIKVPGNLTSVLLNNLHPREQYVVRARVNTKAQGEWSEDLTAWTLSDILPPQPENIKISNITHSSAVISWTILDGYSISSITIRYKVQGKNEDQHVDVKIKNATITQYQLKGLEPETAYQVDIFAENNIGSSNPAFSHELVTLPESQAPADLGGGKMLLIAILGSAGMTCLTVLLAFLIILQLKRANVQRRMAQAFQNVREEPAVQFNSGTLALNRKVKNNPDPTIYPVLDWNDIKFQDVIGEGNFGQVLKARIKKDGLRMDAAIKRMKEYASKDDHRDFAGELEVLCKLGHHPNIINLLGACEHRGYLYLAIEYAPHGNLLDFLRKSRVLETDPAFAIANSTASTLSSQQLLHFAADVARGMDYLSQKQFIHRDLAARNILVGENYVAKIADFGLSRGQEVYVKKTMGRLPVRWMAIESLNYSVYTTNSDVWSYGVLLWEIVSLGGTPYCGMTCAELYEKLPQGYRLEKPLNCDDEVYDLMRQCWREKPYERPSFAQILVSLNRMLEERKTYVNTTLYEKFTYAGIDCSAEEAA

The target of this experiment is Tie-2 (Homo sapiens, UniProt Q02763). As to the kind of experiment: Tie-2 tyrosine kinase activity: kinase-dependent ATP consumption (pEY substrate, luciferase/luciferin chemiluminescence) or 33P-ATP incorporation into substrate. Format: biochemical. The conditions noted are these: Tie-2 (human enzyme) inhibition, Table 2, class symbols A-D. As for the experimental part:
One measure of inhibition is Ki. […] The Ki for a compound is determined from the IC50 based on three assumptions. First, only one compound molecule binds to the enzyme and there is no cooperativity. […] Third, the enzymatic rate of the enzyme-inhibitor complex is zero. The rate (i.e., compound concentration) data are fitted to the equation:
[formula] where V is the observed rate, Vmax, is the rate of the free enzyme, I0 is the inhibitor concentration, E0 is the enzyme concentration, and Kd is the dissociation constant of the enzyme-inhibitor complex.
Tyrosine kinase activity is determined by 1) measurement of kinase-dependent ATP consumption by in the presence of a generic substrate such as polyglutamine, tyrosine (pEY), by luciferase/luciferin-mediated chemiluminescence or; 2) incorporation of radioactive phosphate derived from ^33P-ATP into a generic substrate which has been absorbed onto the well surface of polystyrene microtiter plates. Phosphorylated substrate products are quantified by scintillation spectrometry.
Inhibition is indicated as IC50 with following key: A=IC50 less than 50 nM, B=IC50 greater than 50 nM, but less than or equal to 1000 nM, C=IC50 greater than 1000 nM, but less than 10,000 nM, and D=IC50 10,000 nM or greater. The abbreviation for human enzyme, Tie-2, is defined as tyrosine kinase with immunoglobulin and EGF repeats.
`O=C(Cc1cccc2ccccc12)N(CCn1nc(-c2ccncc2)nc1-c1ccc(O)c(Cl)c1)C1CCCC1` [Entry 1, N-{2-[5-(3-chloro-4-hydroxyphenyl)-3-pyridin-4-yl-1H-1,2,4-triazol-1-yl]ethyl}-N-cyclopentyl-2-naphthalen-1-ylacetamide] showed an IC50 of under 0.05 µM.
`CCOC(=O)Cn1nc(-c2ccncc2)nc1-c1ccc(OC)c(Cl)c1` [Entry 2, ethyl {5-[3-chloro-4-(methyloxy)phenyl]-3-pyridin-4-yl-1H-1,2,4-triazol-1-yl}acetate]: the IC50 is at least 10 µM.
Consider `COc1ccc(-c2nc(-c3ccncc3)nn2CC(=O)NC2CCCC2)cc1Cl` [Entry 3, 2-{5-[3-chloro-4-(methyloxy)phenyl]-3-pyridin-4-yl-1H-1,2,4-triazol-1-yl}-N-cyclopentylacetamide], for which the IC50 was at least 10 µM.
`CCOC(=O)Cn1nc(-c2ccc(OC)c(Cl)c2)nc1-c1ccncc1` [Entry 4, ethyl {3-[3-chloro-4-(methyloxy)phenyl]-5-pyridin-4-yl-1H-1,2,4-triazol-1-yl}acetate]: the IC50 was at least 10 µM.
As for `COc1ccc(-c2nc(-c3ccncc3)n(CC(=O)NC3CCCC3)n2)cc1Cl` [Entry 5, 2-{3-[3-chloro-4-(methyloxy)phenyl]-5-pyridin-4-yl-1H-1,2,4-triazol-1-yl}-N-cyclopentylacetamide], the IC50 is at least 10 µM.
`COC(=O)CCn1nc(-c2ccncc2)nc1-c1ccc(OC)c(Cl)c1` [Entry 6, methyl 3-{5-[3-chloro-4-(methyloxy)phenyl]-3-pyridin-4-yl-1H-1,2,4-triazol-1-yl}propanoate] showed an IC50 of at least 10 µM.
As for `COC(=O)CCn1nc(-c2ccc(OC)c(Cl)c2)nc1-c1ccncc1` [Entry 7, methyl 3-{3-[3-chloro-4-(methyloxy)phenyl]-5-pyridin-4-yl-1H-1,2,4-triazol-1-yl}propanoate], the half-inhibitory concentration (IC50) is at least 10 µM.
Then `COc1ccc(-c2nc(-c3ccncc3)nn2CCCN(C(=O)Cc2cccc3ccccc23)C2CCCC2)cc1Cl` [Entry 8, N-(3-{5-[3-chloro-4-(methyloxy)phenyl]-3-pyridin-4-yl-1H-1,2,4-triazol-1-yl}propyl)-N-cyclopentyl-2-naphthalen-1-ylacetamide], with at least 10 µM.
With `COc1ccc(-c2nc(-c3ccncc3)n(CCCN(C(=O)Cc3cccc4ccccc34)C3CCCC3)n2)cc1Cl` [Entry 9, N-(3-{3-[3-chloro-4-(methyloxy)phenyl]-5-pyridin-4-yl-1H-1,2,4-triazol-1-yl}propyl)-N-cyclopentyl-2-naphthalen-1-ylacetamide], the IC50 is at least 10 µM.
Then `COc1ccc(-c2nc(-c3ccncc3)nn2CCN(C(=O)Cc2cccc3ccccc23)C2CCCC2)cc1Cl` [Entry 10, N-(2-{5-[3-chloro-4-(methyloxy)phenyl]-3-pyridin-4-yl-1H-1,2,4-triazol-1-yl}ethyl)-N-cyclopentyl-2-naphthalen-1-ylacetamide], with under 0.05 µM; and `O=C(Cc1cccc2ccccc12)N(CCn1nc(-c2ccc(O)c(Cl)c2)nc1-c1ccncc1)C1CCCC1` [Entry 11, N-{2-[3-(3-chloro-4-hydroxyphenyl)-5-pyridin-4-yl-1H-1,2,4-triazol-1-yl]ethyl}-N-cyclopentyl-2-naphthalen-1-ylacetamide], with 0.05 to 1 µM.
Compound `COc1ccc(-c2nc(-c3cccnc3)n(CC(=O)NC3CCCC3)n2)cc1Cl` [Entry 12, 2-{3-[3-chloro-4-(methyloxy)phenyl]-5-pyridin-3-yl-1H-1,2,4-triazol-1-yl}-N-cyclopentylacetamide] gave an IC50 of at least 10 µM.
The compound `COc1ccc(-c2nc(-c3cccnc3)nn2CCN(C(=O)Cc2cccc3ccccc23)C2CCCC2)cc1Cl` [Entry 13, N-(2-{5-[3-chloro-4-(methyloxy)phenyl]-3-pyridin-3-yl-1H-1,2,4-triazol-1-yl}ethyl)-N-cyclopentyl-2-naphthalen-1-ylacetamide] yielded an IC50 of at least 10 µM.
The compound `CCOC(=O)Cn1nc(-c2ccncc2)nc1-c1ccc([N+](=O)[O-])cc1` [Entry 14, ethyl [5-(4-nitrophenyl)-3-pyridin-4-yl-1H-1,2,4-triazol-1-yl]acetate] displayed a half-maximal inhibitory concentration (IC50) of at least 10 µM.
Then `CCOC(=O)Cn1nc(-c2ccncc2)nc1-c1cc(Cl)cc(Cl)c1` [Entry 15, ethyl [5-(3,5-dichlorophenyl)-3-pyridin-4-yl-1H-1,2,4-triazol-1-yl]acetate], with at least 10 µM.
Regarding `CCOC(=O)Cn1nc(-c2cc(Cl)cc(Cl)c2)nc1-c1ccncc1` [Entry 16, ethyl [3-(3,5-dichlorophenyl)-5-pyridin-4-yl-1H-1,2,4-triazol-1-yl]acetate], the IC50 is at least 10 µM.
The result for `O=C(Cc1cccc2ccccc12)N(CCn1nc(-c2ccncc2)nc1-c1ccco1)C1CCCC1` [Entry 17, N-cyclopentyl-N-[2-(5-furan-2-yl-3-pyridin-4-yl-1H-1,2,4-triazol-1-yl)ethyl]-2-naphthalen-1-ylacetamide] reads under 0.05 µM; that for `O=C(Cc1cccc2ccccc12)N(CCn1nc(-c2ccco2)nc1-c1ccncc1)C1CCCC1` [Entry 18, N-cyclopentyl-N-[2-(3-furan-2-yl-5-pyridin-4-yl-1H-1,2,4-triazol-1-yl)ethyl]-2-naphthalen-1-ylacetamide], 0.05 to 1 µM.
For `O=C(Cc1cccc2ccccc12)N(CCn1nc(-c2cccs2)nc1-c1ccncc1)C1CCCC1` [Entry 19, N-cyclopentyl-2-naphthalen-1-yl-N-{2-[5-pyridin-4-yl-3-(2-thienyl)-1H-1,2,4-triazol-1-yl]ethyl}acetamide], the IC50 fell in the range of 0.05 to 1 µM.
Turning to `COc1ccc(-c2nc(-c3ccncc3)nn2CCN(C(=O)c2cccc3ccccc23)C2CCCC2)cc1Cl` [Entry 20, N-(2-{5-[3-chloro-4-(methyloxy)phenyl]-3-pyridin-4-yl-1H-1,2,4-triazol-1-yl}ethyl)-N-cyclopentylnaphthalene-1-carboxamide], the IC50 lay in the range of 1 to 10 µM.
`COc1ccc(-c2nc(-c3ccncc3)nn2CCN(C(=O)c2ccc3ccccc3c2)C2CCCC2)cc1Cl` [Entry 21, N-(2-{5-[3-chloro-4-(methyloxy)phenyl]-3-pyridin-4-yl-1H-1,2,4-triazol-1-yl}ethyl)-N-cyclopentylnaphthalene-2-carboxamide] had an IC50 of at least 10 µM.
With `COc1cccc(-c2nc(-c3ccncc3)nn2CCN(C(=O)Cc2cccc3ccccc23)C2CCCC2)c1` [Entry 22, N-cyclopentyl-N-(2-{5-[3-(methyloxy)phenyl]-3-pyridin-4-yl-1H-1,2,4-triazol-1-yl}ethyl)-2-naphthalen-1-ylacetamide], the IC50 was under 0.05 µM.
Then `COc1cccc(-c2nc(-c3ccncc3)n(CCN(C(=O)Cc3cccc4ccccc34)C3CCCC3)n2)c1` [Entry 23, N-cyclopentyl-N-(2-{3-[3-(methyloxy)phenyl]-5-pyridin-4-yl-1H-1,2,4-triazol-1-yl}ethyl)-2-naphthalen-1-ylacetamide], with 0.05 to 1 µM.
The compound `COc1ccc(-c2nc(-c3ccncc3)nn2CCCCN(C(=O)Cc2cccc3ccccc23)C2CCCC2)cc1Cl` [Entry 24, N-(4-{5-[3-chloro-4-(methyloxy)phenyl]-3-pyridin-4-yl-1H-1,2,4-triazol-1-yl}butyl)-N-cyclopentyl-2-naphthalen-1-ylacetamide] had an IC50 of 1 to 10 µM.
